ChEMBL document CHEMBL3397041, “Schiff's bases of quinazolinone derivatives: Synthesis and SAR studies of a novel series of potential anti-inflammatory and antioxidants” (Bioorg Med Chem Lett, 2015)

Experiments:
[1] = Antioxidant activity assessed as DPPH scavenging activity after 30 mins by spectrophotometry; assay type: physicochemical
[2] = Antioxidant activity assessed as DMPD scavenging activity after 15 mins by spectrophotometry; assay type: physicochemical
[3] = Antiinflammatory activity in human erythrocytes assessed as inhibition of hypotonic solution-induced hemolysis after 10 mins by spectrophotometry; assay type: functional, cell-based; details: erythrocyte
[4] = Antioxidant activity assessed as ABTS scavenging activity after 6 mins by spectrophotometry; assay type: physicochemical

IC50 [1] [uM/ml] | IC50 [2] [uM/ml] | IC50 [4] [uM/ml] | Structure (SMILES) | IC50 [3] [uM/ml]
236 | 280 | 115 | COc1cc(/C=N/NC(=O)CCCc2nc3ccccc3c(=O)[nH]2)ccc1O | –
568 | – | 240 | O=C(CCCc1nc2ccccc2c(=O)[nH]1)N/N=C/c1ccccc1 | –
78 | 45 | 40 | O=C(CCCc1nc2ccccc2c(=O)[nH]1)N/N=C/c1cc(O)c(O)c(O)c1 | 183
247 | 280 | 180 | COc1ccc(/C=N/NC(=O)CCCc2nc3ccccc3c(=O)[nH]2)cc1 | –
88 | 80 | 50 | COc1cc(/C=N/NC(=O)CCCc2nc3ccccc3c(=O)[nH]2)cc(O)c1O | 277
204 | 290 | 95 | COc1cc(/C=N/NC(=O)CCc2nc3ccccc3c(=O)[nH]2)ccc1O | –
353 | – | – | O=C(CCCc1nc2ccccc2c(=O)[nH]1)N/N=C/c1ccc(Cl)cc1 | 67
95 | 75 | 50 | O=C(CCCc1nc2ccccc2c(=O)[nH]1)N/N=C/c1ccc(O)c(O)c1 | 300
214 | – | 170 | O=C(CCCc1nc2ccccc2c(=O)[nH]1)N/N=C/c1ccc(O)cc1 | –
81 | 45 | 35 | O=C(CCc1nc2ccccc2c(=O)[nH]1)N/N=C/c1cc(O)c(O)c(O)c1 | 203
113 | 105 | 40 | O=C(CCc1nc2ccccc2c(=O)[nH]1)N/N=C/c1ccc(O)c(O)c1 | 255

More lines, now with the values behind:

Structure (SMILES) | IC50 [1] [uM/ml] | IC50 [2] [uM/ml] | IC50 [4] [uM/ml] | IC50 [3] [uM/ml]
COc1cc(/C=N/NC(=O)CCc2nc3ccccc3c(=O)[nH]2)cc(O)c1O | 104 | 50 | 40 | 261
COc1cc(/C=N/NC(=O)CCCc2nc3ccccc3c(=O)[nH]2)cc(OC)c1O | 97 | 225 | 135 | 524
COc1cc(/C=N/NC(=O)CCc2nc3ccccc3c(=O)[nH]2)cc(OC)c1OC | 85 | 80 | 55 | 682
COc1cc(/C=N/NC(=O)CCc2nc3ccccc3c(=O)[nH]2)cc(OC)c1O | 126 | 275 | 105 | 530
O=C(O)c1cc(O)c(O)c(O)c1 [GALLIC ACID] | – | 100 | 60 | –
COC(=O)CCc1nc2ccccc2c(=O)[nH]1.Cl | 862 | – | – | 1163
COC(=O)CCCc1nc2ccccc2c(=O)[nH]1.Cl | 772 | – | 280 | 975
Cc1cc(C(C)(C)C)c(O)c(C(C)(C)C)c1 [BUTYLATED HYDROXYTOLUENE] | 114 | – | – | –
COc1ccc(/C=N/NC(=O)CCc2nc3ccccc3c(=O)[nH]2)cc1 | 214 | – | 75 | –
COc1cc(/C=N/NC(=O)CCCc2nc3ccccc3c(=O)[nH]2)cc(OC)c1OC | 106 | 85 | 60 | 613
O=C1O[C@H]([C@@H](O)CO)C(O)=C1O [ASCORBIC ACID] | – | 140 | 65 | –
O=C(O)CCc1nc(O)c2ccccc2n1 | 1100 | – | – | –
O=C(O)CCCc1nc2ccccc2c(=O)[nH]1 | 1250 | – | – | –
O=C(CCc1nc2ccccc2c(=O)[nH]1)N/N=C/c1ccc(O)cc1 | 238 | 300 | 105 | –
CC(=O)Oc1ccccc1C(=O)O [ASPIRIN] | – | – | – | 166
O=C(CCc1nc2ccccc2c(=O)[nH]1)N/N=C/c1ccccc1 | 734 | – | 265 | –
O=C(CCc1nc2ccccc2c(=O)[nH]1)N/N=C/c1ccc([N+](=O)[O-])cc1 | 328 | – | 220 | 54
O=C(CCc1nc2ccccc2c(=O)[nH]1)N/N=C/c1ccc(Cl)cc1 | 381 | – | 185 | 84
O=C(CCCc1nc2ccccc2c(=O)[nH]1)N/N=C/c1ccc([N+](=O)[O-])cc1 | 316 | – | 270 | 52
